Among the test systems are 786-0; CAKI-1; CCRF-CEM; EKVX; HCT-15; HOP-62; HT-29; M14; Malme-3M; OVCAR-8; RPMI-8226; SF-268; SF-295; SF-539; SW-620; T47D; TK-10; NCI-H522; Hs-578T.
Common to all, as to assay: inhibition of tumour cell growth, NCI panel, 48 h

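Growth conditions: 96-well plates. Treatment: test compound, 48 hours, 5 concentrations. Analysis: linear interpolation between bracketing concentrations; unreached endpoints set to highest concentration. GI50 = concentration required for 50% inhibition of growth.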 Active and inactive are the calls of the source. No stated cut-off is given here; in the data, active = GI50 up to about 1.1 µM and inactive = higher. Residues, ends and D or L forms follow the SMILES beside them. *: point of attachment. Boc = CC(C)(C)OC(=O)*

For `N/C(=N\OC(=O)NC(Cl)=C(Cl)Cl)c1cc(C(F)(F)F)cc(C(F)(F)F)c1`, the GI50 in the experiment on 786-0 was 16.2 µM (inactive); in the experiment on CAKI-1, 16.7 µM (inactive); in the experiment on CCRF-CEM it was 4.65 µM (inactive); in the experiment with EKVX, 13.7 µM (inactive); in the experiment on HCT-15, 17.3 µM; in the experiment with HOP-62, 17.9 µM (inactive). Also, the GI50 with HT-29 is 16.9 µM (inactive); in the experiment with M14, 25.2 µM (inactive); in the experiment on Malme-3M it was 23.9 µM (inactive); with OVCAR-8, 20.1 µM (inactive); in the experiment with RPMI-8226, 12.5 µM (inactive); with SF-268 it was 18.7 µM (inactive). In addition, the GI50 in the experiment with SF-295 was 17.5 µM (inactive); in the experiment with SF-539, 16 µM (inactive); with SW-620, 18.9 µM (inactive); with T47D it was 6.21 µM (inactive); in the experiment on TK-10 it was 16.5 µM (inactive).

Turning to `COC(=O)C(Cc1c[nH]c2ccccc12)NC(=O)C(Cc1c[nH]c2ccccc12)NC(=O)C(Cc1c[nH]c2ccccc12)NC(=O)C(Cc1c[nH]c2ccccc12)NC(=O)C(Cc1c[nH]c2ccccc12)NC(=O)C(Cc1c[nH]c2ccccc12)NC(=O)OC(C)(C)C` (stereo unspecified) (Boc-WWWWWW-OMe; configuration not given here), the GI50 in the experiment with 786-0 is > 100 µM (inactive); in the experiment with CAKI-1, > 100 µM (inactive); in the experiment on CCRF-CEM, > 100 µM (inactive); in the experiment on HCT-15 it was greater than 100 µM; with HOP-62, > 100 µM (inactive); in the experiment on HT-29, > 100 µM (inactive). The GI50 was > 10 µM (inactive) in the experiment on M14; 69.5 µM (inactive) in the experiment on Malme-3M; 28.1 µM (inactive) with NCI-H522; 92.9 µM (inactive) in the experiment with OVCAR-8; 57 µM (inactive) in the experiment with RPMI-8226; 50.4 µM (inactive) in the experiment with SF-268. For the same compound, the figures for the GI50 with SW-620, in the experiment with T47D and in the experiment with TK-10 were > 100 µM (inactive), 22.2 µM (inactive) and 31.2 µM (inactive), respectively.

In the case of `S=C(NCc1ccccc1)c1nc[nH]c1C(=S)NCc1ccccc1`, the GI50 with 786-0 was 5.96 µM (inactive); with CAKI-1, 5.47 µM (inactive); in the experiment on CCRF-CEM, 2.96 µM (inactive); with EKVX it was 4.34 µM (inactive); in the experiment on HCT-15 it was 3.83 µM; in the experiment on HOP-62, 10 µM (inactive). Further, the GI50 with HT-29 is 6.84 µM (inactive); in the experiment on M14, 5.55 µM (inactive); in the experiment with Malme-3M it was 11 µM (inactive); with NCI-H522, 3.58 µM (inactive); in the experiment with OVCAR-8, 4.49 µM (inactive); in the experiment on RPMI-8226, 5.19 µM (inactive). Moreover, the GI50 is 6.19 µM (inactive) in the experiment with SF-268; 4.57 µM (inactive) with SF-295; 10.4 µM (inactive) with SF-539; 4.98 µM (inactive) with SW-620; 4.35 µM (inactive) in the experiment with T47D; 10.5 µM (inactive) with TK-10.

On to `COC(=O)C1=C(C(=O)OC)SC(=C2c3ccsc3-c3sccc32)S1`, for which the GI50 with 786-0 was 21.4 µM (inactive); with CAKI-1, > 100 µM (inactive); in the experiment on CCRF-CEM, 38.1 µM (inactive); with EKVX, 27.3 µM (inactive); with HCT-15, 53.7 µM; in the experiment with HOP-62 it was 19.7 µM (inactive). In addition, the GI50 with HT-29 is 22.8 µM (inactive); with Hs-578T, 14.9 µM (inactive); in the experiment with M14, 36.6 µM (inactive); with Malme-3M, 43.2 µM (inactive); in the experiment on OVCAR-8 it was 29.1 µM (inactive); in the experiment with RPMI-8226, 76.9 µM (inactive). Further, the GI50 in the experiment on SF-268 was 19.9 µM (inactive); in the experiment with SF-295, 17.6 µM (inactive); in the experiment on SF-539 it was 20.7 µM (inactive); in the experiment on SW-620 it was 69 µM (inactive); in the experiment on TK-10, 24.5 µM (inactive).

In the case of `N#CC(c1ccccc1)c1nc2ccc(N)cc2[n+]([O-])c1C(C#N)c1ccccc1` (stereo unspecified), the GI50 with 786-0 is > 100 µM (inactive); with CAKI-1, 69.8 µM (inactive); in the experiment on CCRF-CEM it was 46.6 µM (inactive); with EKVX it was > 100 µM (inactive); with HCT-15 it was 46 µM; in the experiment on HOP-62, > 100 µM (inactive). Besides, the GI50 was 58.7 µM (inactive) with HT-29; 86.7 µM (inactive) in the experiment with M14; 99.5 µM (inactive) in the experiment on Malme-3M; 46.9 µM (inactive) in the experiment on NCI-H522; 56.4 µM (inactive) in the experiment on OVCAR-8; > 100 µM (inactive) in the experiment with SF-268. For the same compound, the GI50 was > 100 µM (inactive) in the experiment on SF-295, > 100 µM (inactive) in the experiment with SF-539, 57.4 µM (inactive) in the experiment on SW-620 and > 100 µM (inactive) in the experiment on TK-10.

On to `CN1CCCOC(c2ccc(Cl)cc2)O1` (stereo unspecified), for which the GI50 in the experiment with 786-0 is > 100 µM (inactive); with CAKI-1, > 100 µM (inactive); in the experiment on CCRF-CEM, > 100 µM (inactive); in the experiment with EKVX, > 100 µM (inactive); in the experiment with HCT-15, greater than 100 µM; in the experiment with HOP-62, > 100 µM (inactive). Moreover, the GI50 in the experiment on HT-29, with M14, in the experiment on Malme-3M, in the experiment with NCI-H522, in the experiment with OVCAR-8 and in the experiment on SF-268 was > 100 µM (inactive) each time. Moreover, the GI50 with SF-295, with SF-539, with SW-620, in the experiment with T47D and in the experiment with TK-10 was > 100 µM (inactive) in each case.

As to `COc1ccc(C(=O)O/N=C2/CCCCC2CN(C)C)cc1` (stereo unspecified), the GI50 with 786-0 is > 100 µM (inactive); with CAKI-1, > 100 µM (inactive); with CCRF-CEM, > 100 µM (inactive); in the experiment with EKVX, > 100 µM (inactive); in the experiment on HCT-15, greater than 100 µM; in the experiment with HOP-62, > 100 µM (inactive). The GI50 in the experiment on HT-29, in the experiment on M14, with Malme-3M, in the experiment on NCI-H522, in the experiment with OVCAR-8 and in the experiment on RPMI-8226 was > 100 µM (inactive) in each case. In addition, the GI50 with SF-268 is > 10 µM (inactive); in the experiment with SF-295 it was > 100 µM (inactive); in the experiment on SF-539 it was > 100 µM (inactive); with SW-620 it was > 100 µM (inactive); in the experiment on TK-10 it was > 100 µM (inactive).

Turning to `C[C@]12CC[C@H](O)CC1=CC[C@@H]1C2CC[C@]2(C)Nc3c(cnn3-c3ccc(F)cc3)CC12` (stereo partly specified), the GI50 in the experiment with 786-0 was 3.09 µM (inactive); with CAKI-1, 64.6 µM (inactive); in the experiment with CCRF-CEM, 2.94 µM (inactive); in the experiment with EKVX, 79.6 µM (inactive); in the experiment with HCT-15, greater than 100 µM; in the experiment on HOP-62, 10.8 µM (inactive). Also, the GI50 is 5.94 µM (inactive) with HT-29; > 100 µM (inactive) with M14; 14.2 µM (inactive) in the experiment on Malme-3M; 48.1 µM (inactive) in the experiment on NCI-H522; 23.3 µM (inactive) with OVCAR-8; 26.1 µM (inactive) in the experiment on SF-268. Further, the GI50 in the experiment on SF-295 is 2.43 µM (inactive); in the experiment on SF-539 it was 1.46 µM (inactive); in the experiment on T47D, > 42.7 µM (inactive); in the experiment with TK-10 it was 78.2 µM (inactive).

In the case of `CN(C)Cc1cc(/C=C/C(=O)c2ccc(Br)cc2)cc(CN(C)C)c1O`, the GI50 in the experiment with 786-0 was 16 µM (inactive); in the experiment with CAKI-1, 8.47 µM (inactive); in the experiment on CCRF-CEM, 4.06 µM (inactive); in the experiment with EKVX it was 20.2 µM (inactive); in the experiment with HOP-62, 30.1 µM (inactive); in the experiment with HT-29 it was 18.8 µM (inactive). In addition, the GI50 in the experiment with M14 was 31.2 µM (inactive); in the experiment with Malme-3M it was 16.7 µM (inactive); with OVCAR-8 it was 29.2 µM (inactive); with RPMI-8226 it was 3.54 µM (inactive); in the experiment with SF-268, 14.8 µM (inactive); in the experiment with SF-295 it was 21.8 µM (inactive). The GI50 in the experiment on SF-539 was 13.1 µM (inactive); in the experiment on SW-620, 19.1 µM (inactive); in the experiment with T47D, 18.5 µM (inactive); with TK-10 it was 12.8 µM (inactive).

As to `C=C1c2nc3ccccc3n2C=C(c2ccccc2)N1c1ccc(OC)cc1`, the GI50 is 19.5 µM (inactive) with 786-0; 25.5 µM (inactive) in the experiment on CAKI-1; 22.8 µM (inactive) in the experiment with CCRF-CEM; 23.9 µM (inactive) in the experiment on EKVX; 6.9 µM in the experiment on HCT-15; 13.2 µM (inactive) with M14. In addition, the GI50 is 14.2 µM (inactive) in the experiment with Malme-3M; 1.63 µM (inactive) in the experiment with NCI-H522; 13.2 µM (inactive) in the experiment on OVCAR-8; 12.4 µM (inactive) with RPMI-8226; 10.7 µM (inactive) with SF-295; 14 µM (inactive) with SF-539. Further, the figures for the GI50 with SW-620 and with TK-10 were 47.5 µM (inactive) and 12.5 µM (inactive), respectively.

In the case of `O=C1NC(=S)NC(=O)C1C(c1ccc(Cl)cc1)C1C(=O)NC(=S)NC1=O.c1ccncc1`, the GI50 with 786-0 was > 100 µM (inactive); in the experiment on CAKI-1, > 100 µM (inactive); with CCRF-CEM, > 100 µM (inactive); with EKVX, 86.1 µM (inactive); in the experiment on HCT-15, greater than 100 µM; in the experiment on HOP-62, > 100 µM (inactive). In addition, the GI50 in the experiment with HT-29 is > 100 µM (inactive); with M14, > 100 µM (inactive); in the experiment with Malme-3M, 60.8 µM (inactive); in the experiment with NCI-H522, > 100 µM (inactive); in the experiment with OVCAR-8 it was > 100 µM (inactive); in the experiment with RPMI-8226, > 100 µM (inactive). In addition, the GI50 in the experiment with SF-295, with SW-620, with T47D and in the experiment on TK-10 was > 100 µM (inactive) throughout.

For `Cc1ccc(C(=O)N/N=C(\N=N\c2cccc(Cl)c2)c2ccc(N(CCC#N)CCC#N)cc2C)cc1`, the GI50 in the experiment with 786-0 was 82 µM (inactive); in the experiment on CAKI-1, > 100 µM (inactive); in the experiment on CCRF-CEM, 97.1 µM (inactive); in the experiment with EKVX, > 100 µM (inactive); in the experiment with HCT-15, greater than 100 µM; in the experiment with HOP-62, > 100 µM (inactive). For the same compound, the GI50 was 90.2 µM (inactive) in the experiment on HT-29; > 100 µM (inactive) with M14; > 100 µM (inactive) in the experiment with Malme-3M; > 100 µM (inactive) with NCI-H522; 79.4 µM (inactive) in the experiment with OVCAR-8; 91.8 µM (inactive) with RPMI-8226. For the same compound, the GI50 was > 100 µM (inactive) with SF-295; > 100 µM (inactive) in the experiment on SF-539; > 100 µM (inactive) in the experiment on SW-620; 69 µM (inactive) with T47D; > 100 µM (inactive) with TK-10.

Values taken from ChEMBL document CHEMBL1201862, “PubChem BioAssay data set” (2004).
